Data from the NIST ThermoML archive (doi:10.1016/j.jct.2014.06.023).
Several values for one entry are separate records, joined by “and”; a condition that tells them apart may be missing. Equal values may be shown once.

Details: Buoyancy - hydrostatic balance with magnetic suspension - one sinker

CC [ethane]
Details | mass density
225.41 K, 310.68 kPa, Gas | 5.2843 kg/m3
225.41 K, 1642.2 kPa, Liquid | 489.85 kg/m3
225.42 K, 212.66 kPa, Gas | 3.5454 kg/m3
225.42 K, 1086.8 kPa, Liquid | 488.834 kg/m3
225.42 K, 2133.2 kPa, Liquid | 490.717 kg/m3
225.43 K, 709.57 kPa, Liquid | 488.151 kg/m3
225.44 K, 403.34 kPa, Gas | 6.9981 kg/m3
225.47 K, 499.44 kPa, Gas | 8.8558 kg/m3
230.34 K, 306.85 kPa, Gas | 5.0853 kg/m3
230.34 K, 1666.7 kPa, Liquid | 482.366 kg/m3
230.34 K, 2111.2 kPa, Liquid | 483.236 kg/m3
230.35 K, 197.35 kPa, Gas | 3.2054 kg/m3
230.35 K, 391.01 kPa, Gas | 6.5852 kg/m3
230.35 K, 493.22 kPa, Gas | 8.4852 kg/m3
230.35 K, 2447.9 kPa, Liquid | 483.853 kg/m3
230.36 K, 615.49 kPa, Gas | 10.8842 kg/m3
230.36 K, 1671.6 kPa, Liquid | 482.356 kg/m3
230.37 K, 1281 kPa, Liquid | 481.577 kg/m3
230.38 K, 886.51 kPa, Liquid | 480.769 kg/m3
235 K, 391.54 kPa, Gas | 6.4356 kg/m3
235.01 K, 305.16 kPa, Gas | 4.9382 kg/m3
235.01 K, 499.46 kPa, Gas | 8.3818 kg/m3
235.01 K, 592.34 kPa, Gas | 10.1286 kg/m3
235.02 K, 197.5 kPa, Gas | 3.137 kg/m3
235.03 K, 694.56 kPa, Gas | 12.1431 kg/m3
239.99 K, 717.05 kPa, Gas | 12.2167 kg/m3
240.01 K, 954.18 kPa, Gas | 17.1448 kg/m3
240.04 K, 105.82 kPa, Gas | 1.619 kg/m3
240.04 K, 323.6 kPa, Gas | 5.1239 kg/m3
240.04 K, 502.79 kPa, Gas | 8.2138 kg/m3
240.04 K, 1755.7 kPa, Liquid | 466.891 kg/m3
240.05 K, 2196.3 kPa, Liquid | 467.899 kg/m3
240.06 K, 1092.2 kPa, Liquid | 465.243 kg/m3
240.06 K, 1457.2 kPa, Liquid | 466.142 kg/m3
240.08 K, 2591.9 kPa, Liquid | 468.767 kg/m3
240.09 K, 2936.2 kPa, Liquid | 469.524 kg/m3
244.91 K, 880.77 kPa, Gas | 15.0548 kg/m3
244.91 K, 1111.6 kPa, Gas | 20.0182 kg/m3
244.92 K, 628.26 kPa, Gas | 10.2258 kg/m3
244.92 K, 877.28 kPa, Gas | 14.9812 kg/m3
244.92 K, 1123.2 kPa, Liquid | 456.739 kg/m3
244.92 K, 1225 kPa, Liquid | 457.081 kg/m3
244.92 K, 1442.7 kPa, Liquid | 457.624 kg/m3
244.93 K, 138.73 kPa, Gas | 2.0893 kg/m3
244.93 K, 350.79 kPa, Gas | 5.4481 kg/m3
244.93 K, 350.8 kPa, Gas | 5.4496 kg/m3
244.93 K, 904.97 kPa, Gas | 15.5558 kg/m3
244.93 K, 1659 kPa, Liquid | 458.187 kg/m3
244.93 K, 1659.6 kPa, Liquid | 458.185 kg/m3
244.95 K, 1111.4 kPa, Gas | 20.0202 kg/m3
249.79 K, 863.82 kPa, Gas | 14.2661 kg/m3
249.8 K, 863.8 kPa, Gas | 14.2677 kg/m3
249.8 K, 1281.6 kPa, Gas | 23.1579 kg/m3
249.81 K, 360.58 kPa, Gas | 5.4802 kg/m3
249.81 K, 633.6 kPa, Gas | 10.0488 kg/m3
249.81 K, 1067.5 kPa, Gas | 18.3574 kg/m3 and 18.3577 kg/m3
249.81 K, 1281.3 kPa, Gas | 23.1411 kg/m3
249.82 K, 147.6 kPa, Gas | 2.1773 kg/m3
249.84 K, 2352.9 kPa, Liquid | 451.272 kg/m3
249.85 K, 2081.5 kPa, Liquid | 450.462 kg/m3
249.86 K, 2510.3 kPa, Liquid | 451.694 kg/m3
249.86 K, 2510.4 kPa, Liquid | 451.694 kg/m3
249.87 K, 2510.9 kPa, Liquid | 451.681 kg/m3
249.9 K, 1805.5 kPa, Liquid | 449.546 kg/m3
249.93 K, 1301 kPa, Liquid | 447.948 kg/m3
249.93 K, 1354.2 kPa, Liquid | 448.104 kg/m3
249.93 K, 1591.6 kPa, Liquid | 448.847 kg/m3
254.69 K, 1692.1 kPa, Liquid | 439.901 kg/m3
254.69 K, 2265.9 kPa, Liquid | 441.863 kg/m3
254.7 K, 2492.4 kPa, Liquid | 442.576 kg/m3
254.7 K, 2493.3 kPa, Liquid | 442.588 kg/m3
254.72 K, 114.93 kPa, Gas | 1.6547 kg/m3
254.72 K, 2013.5 kPa, Liquid | 440.937 kg/m3
254.73 K, 225.89 kPa, Gas | 3.2988 kg/m3
254.74 K, 1474.7 kPa, Gas | 26.843 kg/m3
254.75 K, 3109.9 kPa, Liquid | 444.464 kg/m3
254.76 K, 634.94 kPa, Gas | 9.817 kg/m3
254.76 K, 825.19 kPa, Gas | 13.1528 kg/m3
254.76 K, 1040.1 kPa, Gas | 17.2189 kg/m3
254.76 K, 1280.4 kPa, Gas | 22.2529 kg/m3
254.76 K, 1280.5 kPa, Gas | 22.2533 kg/m3
254.76 K, 2860.9 kPa, Liquid | 443.666 kg/m3
254.77 K, 423.98 kPa, Gas | 6.354 kg/m3
254.78 K, 3457.8 kPa, Liquid | 445.504 kg/m3
254.81 K, 2648.7 kPa, Liquid | 442.883 kg/m3
259.62 K, 933.39 kPa, Gas | 14.7341 kg/m3
259.62 K, 1174.9 kPa, Gas | 19.3302 kg/m3
259.62 K, 1700.9 kPa, Liquid | 429.637 kg/m3
259.62 K, 2698.9 kPa, Liquid | 433.539 kg/m3
259.63 K, 152.52 kPa, Gas | 2.1615 kg/m3
259.63 K, 358.5 kPa, Gas | 5.211 kg/m3
259.63 K, 550.88 kPa, Gas | 8.2159 kg/m3
259.63 K, 726.92 kPa, Gas | 11.1161 kg/m3
259.63 K, 1351.5 kPa, Gas | 23.0156 kg/m3
259.63 K, 1351.6 kPa, Gas | 23.0046 kg/m3
259.63 K, 1548.6 kPa, Gas | 27.5129 kg/m3
259.63 K, 2097.3 kPa, Liquid | 431.21 kg/m3
259.63 K, 2412.9 kPa, Liquid | 432.441 kg/m3
259.63 K, 3076.2 kPa, Liquid | 434.902 kg/m3
265.02 K, 505.8 kPa, Gas | 7.3166 kg/m3
265.06 K, 116.65 kPa, Gas | 1.6114 kg/m3
265.06 K, 279.98 kPa, Gas | 3.9405 kg/m3
265.06 K, 3532.6 kPa, Liquid | 425.483 kg/m3
265.07 K, 1811.5 kPa, Gas | 32.6652 kg/m3
265.07 K, 2278.6 kPa, Liquid | 419.942 kg/m3
265.07 K, 2962.8 kPa, Liquid | 423.046 kg/m3
265.08 K, 1404.5 kPa, Gas | 23.2391 kg/m3
265.08 K, 1612.3 kPa, Gas | 27.8016 kg/m3
265.08 K, 2073 kPa, Liquid | 418.96 kg/m3
265.08 K, 2322.7 kPa, Liquid | 420.14 kg/m3
265.08 K, 2963.1 kPa, Liquid | 423.044 kg/m3
265.08 K, 3081.3 kPa, Liquid | 423.536 kg/m3
265.08 K, 3090.5 kPa, Liquid | 423.579 kg/m3
265.09 K, 2565.3 kPa, Liquid | 421.145 kg/m3
265.09 K, 3539.3 kPa, Liquid | 425.459 kg/m3
265.1 K, 816.83 kPa, Gas | 12.3046 kg/m3
265.1 K, 1004.4 kPa, Gas | 15.548 kg/m3
265.1 K, 1199.4 kPa, Gas | 19.1462 kg/m3
265.1 K, 2730.8 kPa, Liquid | 421.962 kg/m3
